These results are taken from ChEMBL document CHEMBL1140289, “Studies on the apoptotic activity of natural and synthetic retinoids: discovery of a new class of synthetic terphenyls that potently support cell growth and inhibit apoptosis in neuronal and HL-60 cells” (2005).

For test [1], the system named is HL-60. The experiment in a line: Effect (1 uM) on HL-60 cell apoptosis cultured for 72 hours in nonsupplemented serum-free medium. It counts as functional, Homo sapiens.
The test system of test [2] is HL-60. The experiment in a line: Effect (1 uM) on HL-60 cell growth cultured for 72 hours in nonsupplemented serum-free medium. It counts as functional, Homo sapiens.

In turn, `CC(=O)OC[C@H](OC(C)=O)[C@@](C)(O)/C=C/C=C(C)/C=C/C1=C(C)CCCC1(C)C` yielded an Apoptosis with HL-60 [1] of 30%. The Activity with HL-60 [2] was 207 no. of living cells (10E3) /mL.

In the test with HL-60 [1], `CC(=O)OC[C@H](OC(C)=O)/C(C)=C/C=C/C(C)=C/C=C1/C(C)=CCCC1(C)C` had an Apoptosis of 40%. The Activity with HL-60 [2] is on record as 129 no. of living cells (10E3) /mL.

The compound `COc1cc(-c2ccc(-c3ccc(C(=O)O)cc3)cc2)cc(OC)c1OC` came in with an Apoptosis in the test on HL-60 [1] of 18%. In addition, in the test with HL-60 [2], the Activity is listed as 300 no. of living cells (10E3) /mL.

Turning to `COc1cc(-c2cccc(-c3ccc(C(=O)O)cc3)c2)cc(OC)c1OC`, the Apoptosis in the test with HL-60 [1] was 17%. Also, the Activity in the test with HL-60 [2] is on record as 350 no. of living cells (10E3) /mL.

In the test with HL-60 [1], `COc1cc(/C=C\c2ccc(C(=O)O)cc2)cc(OC)c1OC` gave an Apoptosis of 42%. In addition, the Activity in the test on HL-60 [2] is on record as 100 no. of living cells (10E3) /mL.

Take `CC1(C)CCC(C)(C)c2cc(/C=C\c3ccc(C(=O)O)cc3)ccc21`: the Apoptosis in the test with HL-60 [1] is listed as 43%. The Activity in the test with HL-60 [2] is 100 no. of living cells (10E3) /mL.

With `COc1cc(/C=C/c2ccc(C(=O)O)cc2)cc(OC)c1OC`, the Apoptosis with HL-60 [1] is on record as 36%. Further, in the test on HL-60 [2], the Activity is on record as 166 no. of living cells (10E3) /mL.

For the compound `COc1cc(-c2ccccc2-c2ccc(C(=O)O)cc2)cc(OC)c1OC`, the Apoptosis in the test with HL-60 [1] is recorded as 22%. Besides, the Activity in the test with HL-60 [2] is recorded as 220 no. of living cells (10E3) /mL.

Regarding `CC1=CCCC(C)(C)\C1=C/C=C(C)/C=C/C=C(\C)[C@@H](O)CO`, the Apoptosis with HL-60 [1] was found to be 34%. Besides, the Activity in the test with HL-60 [2] was 181 no. of living cells (10E3) /mL.

As for `CC(=O)CC[C@H](O)[C@@](C)(O)/C=C/C=C(C)/C=C/C1=C(C)CCCC1(C)C`, in the test with HL-60 [1], the Apoptosis came out at 41%. Also, the Activity with HL-60 [2] is reported as 129 no. of living cells (10E3) /mL.

As to `CC1=C(/C=C/C(C)=C/C=C/[C@](C)(O)[C@@H](O)CO)C(C)(C)CCC1`, in the test with HL-60 [1], the Apoptosis was 37%. For the same compound, in the test on HL-60 [2], the Activity was 149 no. of living cells (10E3) /mL.

In the test on HL-60 [1], `CC1(C)CCC(C)(C)c2cc(/C=C/c3ccc(C(=O)O)cc3)ccc21` gave an Apoptosis of 36%. Also, the Activity in the test on HL-60 [2] was 155 no. of living cells (10E3) /mL.
